Experimental data taken from the NIST ThermoML archive (doi:10.1007/s10765-008-0497-7).
± gives the expanded uncertainty stated by the source.

Details: Liquid

CCCCCCn1cc[n+](C)c1.F[B-](F)(F)F [1-hexyl-3-methylimidazolium tetrafluoroborate]
viscosity [mPa·s]
Details | Cone and plate viscometry | Moving piston method
298.15 K, 100 kPa | – | 202 ± 12
298.15 K, 101.33 kPa | 210.4 ± 12 | 202.4 ± 2.1
298.15 K, 2640 kPa | – | 209 ± 13
298.15 K, 4290 kPa | – | 213 ± 13
298.15 K, 6950 kPa | – | 215 ± 13
298.15 K, 34590 kPa | – | 299 ± 18
298.15 K, 48400 kPa | – | 387 ± 23
298.15 K, 68140 kPa | – | 478 ± 29
298.15 K, 82970 kPa | – | 532 ± 32
298.15 K, 96820 kPa | – | 621 ± 38
298.15 K, 108550 kPa | – | 743 ± 45
298.15 K, 117850 kPa | – | 819 ± 50
323.15 K, 100 kPa | – | 58.5 ± 3.6
323.15 K, 101.33 kPa | – | 58.5 ± 1
323.15 K, 2600 kPa | – | 59.7 ± 3.7
323.15 K, 4130 kPa | – | 61 ± 3.8
323.15 K, 6850 kPa | – | 62 ± 3.8
323.15 K, 34520 kPa | – | 79.9 ± 5
323.15 K, 48180 kPa | – | 91.1 ± 5.7
323.15 K, 68990 kPa | – | 108.2 ± 6.8
323.15 K, 82710 kPa | – | 121.8 ± 7.6
323.15 K, 96550 kPa | – | 136 ± 8.6
323.15 K, 110120 kPa | – | 152.4 ± 9.7
323.15 K, 121810 kPa | – | 165 ± 11
343.15 K, 100 kPa | – | 27 ± 1.7
343.15 K, 101.33 kPa | – | 27 ± 0.4
343.15 K, 3100 kPa | – | 27.6 ± 1.7
343.15 K, 4100 kPa | – | 27.5 ± 1.7
343.15 K, 7100 kPa | – | 28 ± 1.7
343.15 K, 35100 kPa | – | 35.2 ± 2.2
343.15 K, 48340 kPa | – | 39.2 ± 2.4
343.15 K, 68140 kPa | – | 45 ± 2.8
343.15 K, 83080 kPa | – | 49.9 ± 3.1
343.15 K, 96550 kPa | – | 55.1 ± 3.4
343.15 K, 110120 kPa | – | 60.8 ± 3.8
343.15 K, 121810 kPa | – | 65 ± 4

CCCCCCCCCCn1cc[n+](C)c1.O=S(=O)([N-]S(=O)(=O)C(F)(F)F)C(F)(F)F
viscosity [mPa·s]
Details | 298.15 K | 323.15 K | 343.15 K
100 kPa, Moving piston method | 108.2 ± 6.5 | 36.2 ± 2.2 | 18.15 ± 1.1
101.33 kPa, Cone and plate viscometry | 111.2 ± 4.5 | – | –
101.33 kPa, Moving piston method | 108.2 ± 1.1 | 36.3 ± 0.5 | 18.2 ± 0.23
2950 kPa, Moving piston method | 111.5 ± 6.7 | 37.5 ± 2.3 | 18.55 ± 1.1
4270 kPa, Moving piston method | 112.8 ± 6.8 | 38.2 ± 2.3 | 18.75 ± 1.1
6900 kPa, Moving piston method | 117.6 ± 7.1 | 39.2 ± 2.4 | 19.3 ± 1.2
34600 kPa, Moving piston method | 167.5 ± 10 | 53.6 ± 3.3 | 25.76 ± 1.6
47960 kPa, Moving piston method | 199 ± 12 | 61.8 ± 3.8 | 29.15 ± 1.8
68870 kPa, Moving piston method | 257 ± 16 | 76 ± 4.7 | 35.72 ± 2.2
83290 kPa, Moving piston method | 301.1 ± 18 | 85.9 ± 5.3 | 40.47 ± 2.5
93030 kPa, Moving piston method | 336.7 ± 20 | 94.3 ± 5.8 | 44.56 ± 2.7
109800 kPa, Moving piston method | 402.7 ± 24 | 110.8 ± 6.9 | 51.26 ± 3.1
122570 kPa, Moving piston method | 459.8 ± 28 | 122.6 ± 7.7 | 56.74 ± 3.5

CCCCn1cc[n+](C)c1.F[P-](F)(F)(F)(F)F [1-butyl-3-methylimidazolium hexafluorophosphate]
298.15 K, Moving piston method
Details | viscosity [mPa·s]
100 kPa | 270.9 ± 21
3400 kPa | 289.7 ± 23
6900 kPa | 305.7 ± 24
12100 kPa | 329.2 ± 26
17200 kPa | 353.7 ± 29
24700 kPa | 396.3 ± 33
25700 kPa | 398.2 ± 33
41400 kPa | 473.8 ± 41
50600 kPa | 543.4 ± 49

CCCCCCn1cc[n+](C)c1.F[P-](F)(F)(F)(F)F [1-hexyl-3-methylimidazolium hexafluorophosphate]
viscosity [mPa·s]
Details | 298.15 K | 323.15 K | 343.15 K
100 kPa, Moving piston method | 481 ± 29 | 121.4 ± 7.5 | 48.1 ± 3
101.33 kPa, Cone and plate viscometry | 489.5 ± 40 | – | –
101.33 kPa, Moving piston method | 481.4 ± 5.7 | 121.4 ± 2.1 | 48.1 ± 1
2990 kPa, Moving piston method | 523 ± 32 | – | –
4000 kPa, Moving piston method | 530 ± 32 | 127.1 ± 7.9 | 50.3 ± 3.1
7000 kPa, Moving piston method | 556 ± 34 | – | –
7600 kPa, Moving piston method | – | 132.4 ± 8.3 | 52 ± 3.2
22000 kPa, Moving piston method | 701 ± 42 | – | –
25800 kPa, Moving piston method | – | 164 ± 10 | 62.6 ± 3.9
35000 kPa, Moving piston method | 833 ± 50 | 182.6 ± 12 | 68.6 ± 4.3
42100 kPa, Moving piston method | 920 ± 55 | – | –
50000 kPa, Moving piston method | 1023 ± 62 | – | –
50600 kPa, Moving piston method | – | 218.9 ± 14 | 80.5 ± 5
60300 kPa, Moving piston method | 1176 ± 71 | 241.7 ± 15 | 88.1 ± 5.5
76000 kPa, Moving piston method | – | 280.8 ± 17 | 102.5 ± 6.4
93000 kPa, Moving piston method | – | 334.2 ± 20 | 118.7 ± 7.4
101000 kPa, Moving piston method | – | 364.2 ± 22 | 127.1 ± 8
126000 kPa, Moving piston method | – | 483.1 ± 29 | 157.8 ± 10

CCCCCC[n+]1ccn(C)c1.O=S(=O)([N-]S(=O)(=O)C(F)(F)F)C(F)(F)F
viscosity [mPa·s]
Details | 298.15 K | 323.15 K | 343.15 K
100 kPa, Moving piston method | 70.96 ± 4.3 | 24.9 ± 1.5 | 14.07 ± 0.85
101.33 kPa, Cone and plate viscometry | 71.5 ± 2.4 | – | –
101.33 kPa, Moving piston method | 71 ± 0.7 | 24.9 ± 0.3 | 14.1 ± 0.4
2990 kPa, Moving piston method | 71.04 ± 4.3 | 25.81 ± 1.6 | 14.12 ± 0.86
4000 kPa, Moving piston method | 71.38 ± 4.3 | 25.98 ± 1.6 | 14.22 ± 0.86
7000 kPa, Moving piston method | 73.71 ± 4.4 | 26.87 ± 1.6 | 14.6 ± 0.9
35000 kPa, Moving piston method | 103.4 ± 6.2 | 35.96 ± 2.2 | 18.62 ± 1.1
50000 kPa, Moving piston method | 122.2 ± 7.4 | 41.57 ± 2.5 | 21.1 ± 1.3
70000 kPa, Moving piston method | 152.2 ± 9.2 | 50.43 ± 3.1 | 25.17 ± 1.5
83000 kPa, Moving piston method | 173.2 ± 10 | 56.96 ± 3.5 | 28.12 ± 1.7
93000 kPa, Moving piston method | 196.3 ± 12 | 62.11 ± 3.8 | 30.42 ± 1.9
110000 kPa, Moving piston method | 237.6 ± 14 | 71.6 ± 4.4 | 34.65 ± 2.1
124000 kPa, Moving piston method | 275.7 ± 17 | 80.46 ± 5 | 38.34 ± 2.3

CCn1cc[n+](C)c1.O=S(=O)([N-]S(=O)(=O)C(F)(F)F)C(F)(F)F
viscosity [mPa·s]
Details | 298.15 K | 323.15 K | 343.15 K
100 kPa, Moving piston method | 34.4 ± 2.1 | 15.6 ± 0.9 | 9.6 ± 0.6
101.33 kPa, Cone and plate viscometry | 34.1 ± 1 | – | –
101.33 kPa, Moving piston method | 34.29 ± 0.26 | 15.6 ± 0.2 | 9.55 ± 0.09
2820 kPa, Moving piston method | 35 ± 2.1 | 16.1 ± 1 | 9.8 ± 0.6
4190 kPa, Moving piston method | 35.3 ± 2.1 | 16.4 ± 1 | 9.9 ± 0.6
7360 kPa, Moving piston method | 36.2 ± 2.2 | 16.9 ± 1 | 10.2 ± 0.6
35560 kPa, Moving piston method | 46.8 ± 2.8 | 22 ± 1.3 | 12.6 ± 0.8
48760 kPa, Moving piston method | 53.3 ± 3.2 | 24.9 ± 1.5 | 13.8 ± 0.8
69300 kPa, Moving piston method | 65 ± 3.9 | 30.8 ± 1.9 | 16 ± 1
85200 kPa, Moving piston method | 79.4 ± 4.8 | 36.7 ± 2.2 | 17.7 ± 1.1
96500 kPa, Moving piston method | 90 ± 5.4 | 40.1 ± 2.4 | 19.2 ± 1.2
110550 kPa, Moving piston method | 108.6 ± 6.5 | 44.8 ± 2.7 | 21.2 ± 1.3
121530 kPa, Moving piston method | – | 49.5 ± 3 | –
122430 kPa, Moving piston method | 131.5 ± 7.9 | – | –
125530 kPa, Moving piston method | – | – | 23.4 ± 1.4
